The results in this text go back to patent US20080279912A1, “Use of Cis-Epoxyeicosatrienoic Acids And Inhibitors of Soluble Epoxide Hydrolase to Alleviate Eye Disorders” (Regents of the University of California Office of …, priority 2005, published 2008).

Data set [1] concerns the target T1, sEH (Homo sapiens, UniProt P34913).
T1 sequence (P34913 1-555): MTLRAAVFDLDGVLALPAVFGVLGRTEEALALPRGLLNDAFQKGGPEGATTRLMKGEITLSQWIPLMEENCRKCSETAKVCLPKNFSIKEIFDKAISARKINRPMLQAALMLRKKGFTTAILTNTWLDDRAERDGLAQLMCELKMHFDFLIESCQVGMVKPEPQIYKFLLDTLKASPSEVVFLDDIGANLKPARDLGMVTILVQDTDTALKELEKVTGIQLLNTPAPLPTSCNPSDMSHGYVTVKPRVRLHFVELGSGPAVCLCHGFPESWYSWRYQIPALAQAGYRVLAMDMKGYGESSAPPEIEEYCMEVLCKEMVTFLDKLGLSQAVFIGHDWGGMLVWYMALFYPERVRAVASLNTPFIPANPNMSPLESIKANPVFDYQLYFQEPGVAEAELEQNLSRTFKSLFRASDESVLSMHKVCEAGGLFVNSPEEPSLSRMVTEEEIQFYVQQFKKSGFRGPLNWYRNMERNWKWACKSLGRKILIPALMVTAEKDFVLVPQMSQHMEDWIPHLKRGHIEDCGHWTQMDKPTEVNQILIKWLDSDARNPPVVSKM
Put plainly: Inhibition of sEH (standard assays, stated in text). The format is biochemical. The source says: Derivatives of urea are transition state mimetics that form a preferred group of sEH inhibitors. […] Any particular urea derivative or other compound can be easily tested for its ability to inhibit sEH by standard assays, such as those discussed herein. The production and testing of urea and carbamate derivatives as sEH inhibitors is set forth in detail in, for example, Morisseau et al., Proc Natl Acad Sci (USA) 96:8849-8854 (1999).
Any of a number of standard assays for determining epoxide hydrolase activity can be used to determine inhibition of sEH. […] Suitable in vitro assays are described in Zeldin et al., J. Biol. Chem. 268:6402-6407 (1993). Suitable in vivo assays are described in Zeldin et al., Arch Biochem Biophys 330:87-96 (1996).

A short description of data set [2]: Metabolic stability. In kind it is in vitro ADME.
The subject of data set [3] is New Zealand white rabbits. Put plainly: Intraocular pressure in rabbits after treatment of the eye (tonometer). In kind it is in vivo. The note with it: one rabbit per treatment, 50 μL/eye; for Change in intraocular pressure (IOP treated eye minus control eye) after topical instillation: 100 μg/mL in artificial tears with 1% DMSO; for Time after treatment at which IOP decline appeared: 100 μg/mL, topical. On the procedure:
Female New Zealand white rabbits (2.7-3.0 kg) were obtained from Harlan (Indianapolis, Ind.). On test day, rabbits were lightly tranquilized with torbugesic/acepromazine at 0.04 mg/kg, administered subcutaneously. Ten to twenty minutes after administration of the tranquilizer, a drop of proparacaine hydrochloride (0.5% ophthalmic solution) was instilled in each eye to numb the eye prior to taking the intraocular pressure measurement. After 2-5 min, intraocular pressure in each eye (right and left) was measured using a tonometer (Tono-Pen®, Mentor Opthalmics, Santa Barbara, Calif.). Measurements were taken every 3-5 minutes to obtain baseline pressure. Then various treatments were applied (right eye) and after 3-5 minutes measurements were again taken every 3-5 minutes. Data are expressed as the change in intraocular pressure (“IOP”) in the treated eye compared to the control eye (IOP in treated eye—IOP in control eye). […] DMSO is also known to aid penetration through the skin. For a treatment to be effective, it must penetrate the cornea. Later treatments utilized subconjunctival injection. This delivers the compound below the conjunctiva where it is rapidly absorbed, avoiding issues of absorption.
Treatments: Each rabbit was administered one of the following treatments: (1). Epoxyeicosatrienoic acids (EETs) only, 100 μg/mL carboxylmethyl cellulose artificial tears containing 1% dimethyl sulfoxide (DMSO), 50 μL/eye (2). […] EETs only, 10 μg/mL carboxylmethyl cellulose artificial tears containing 1% DMSO, 0.1 cc/eye administered subconjunctivally (4).
Compounds used for the topical treatment of eye diseases become clinically useful only if they can penetrate the intact epithelium of the cornea and conjunctiva and achieve clinically useful concentrations within the eye. Thus for these trials we used both instillation by drops and by subconjunctival injections.

A short description of data set [4]: Stability of EETs on storage, handling and administration. The format is physicochemical. Conditions: if not exposed to acidic conditions or to sEH.

Turning to `CCCCCCCCCCCCNC(=O)NC12CC3CC(CC(C3)C1)C2` [ADU, N-Adamantyl-N′-dodecyl urea], the “Activity as an inhibitor of sEH” value in data set [1] was “particularly high activity”. Further, the Metabolic stability result in data set [2] is “metabolically stable”.

Take `O=C(O)CCCCCCCCCCCNC(=O)NC12CC3CC(CC(C3)C1)C2` [AUDA, 12-(3-Adamantan-1-yl-ureido)dodecanoic acid]: in data set [3], the “Change in intraocular pressure (IOP treated eye minus control eye) after topical instillation” value was “distinct decline in pressure” and the “Time after treatment at which IOP decline appeared” value is given as “about 20 minutes”.

cis-Epoxyeicosatrienoic acids [EETs]: in data set [3], the “Change in intraocular pressure (IOP treated eye minus control eye) after topical instillation” value was “definite declining trend” and the “Time after treatment at which IOP decline appeared” value is reported as “about 45 minutes”. Further, in data set [4], the Stability entry is “stable”.
